This passage reports IC50 results from patent EP4610260B1, “ARYL HETEROCYCLIC KV1.3 INHIBITOR, PREPARATION METHOD THEREFOR, AND USE THEREOF” (Shanghai Shenshi Wise Technology Co., Ltd., priority 2022, dated 2024).

This assay has as its system Kv1.3 potassium channel. Briefly: Whole-cell patch-clamp assay for inhibitory activity against Kv1.3 (peak current). Format: cell-based. To be noted: HEK293 cells stably expressing Kv1.3, room temperature. On the procedure:
1. Assay for inhibitory activity of compounds against Kv1.X
HEK293 cells stably expressing Kv1.X (Kv1.1, Kv1.2, Kv1.3, Kv1.4, Kv1.5) potassium channels were cultured in DMEM medium containing 10% fetal bovine serum and 800 µg/mL G418 (geneticin) at a culture temperature of 37 °C and a carbon dioxide concentration of 5%.
1.2. Fluids used for recording
The extracellular fluid contained 40 mM NaCl, 3.5 mM KCl, 1 mM MgCl2•6H2O, 2 mM CaCl2•2H2O, 10 mM D-glucose, 10 mM HEPES, 1.25 mM NaH2PO4•2H2O, and the pH was adjusted to 7.4 with NaOH. The intracellular fluid contained 20 mM KCl, 115 mM K-Aspartic, 1 mM MgCl2•6H2O, 5 mM EGTA, 10 mM HEPES, 2 mM Na2-ATP, and the pH was adjusted to 7.2 with KOH.
The voltage stimulation protocol for recording whole-cell Kv1.X potassium currents via patch-clamp was as follows: After formation of a whole-cell seal, the cell membrane voltage was clamped at -80 mV, and then stepped to +40 mV for 500 ms. Data were acquired repeatedly every 30 s and the effect of the drug on Kv1.X currents was observed. […] Then, a slow capacitance compensation was given, and the membrane capacitance and series resistance were recorded. […]
Once the whole-cell recorded Kv1.X current stabilized, drug administration was started. […] For each cell, the current detected in the compound-free extracellular liquid was used as its own control group. […]
In general terms: The patch-clamp technique gives a direct electrical read-out from membranes.

One may read the IC50 as the point on the concentration scale where inhibition reaches its midpoint. The low end stands for inhibition by little substance, the high end for a need for much substance. Compound `Oc1ccc(Cl)c(Cl)c1[C@@H]1Cc2nnc([C@H]3C[C@@H](O)C3)n2C1` [Example 70, 3,4-Dichloro-2-((S)-3-((1s,3R)-3-hydroxycyclobutyl)-6,7-dihydro-5H-pyrrolo[2,1-c][1,2,4]triazol-6-yl)phenol] gave an IC50 of 21.6 nM.
Compound `Oc1ccc(Cl)c(Cl)c1[C@@H]1Cc2nnc([C@H]3C[C@H](O)C3)n2C1` [Example 71, 3,4-dichloro-2-((S)-3-((1r,3S)-3-hydroxycyclobutyl)-6,7-dihydro-5H-pyrrolo[2,1-c][1,2,4]triazol-6-yl)phenol] yielded an IC50 of 10.3 nM.
